Results as given in patent US7491827B2, “Aryl sulfonamides useful as inhibitors of chemokine receptor activity” (Millennium Pharmaceuticals, Inc., priority 2003, dated 2009).
Where two headings read alike, the source gives them in different places.

Molecular target: T1, cloned human CCR8 receptor stably expressed in L1.2 cells (Homo sapiens, UniProt P51685)
T1 construct: expressed in transfected cells
Assay: whole cell binding screen: inhibition of biotinylated human I309 binding to CCR8 (FMAT 8100 HTS)
Settings: biotinylated human I-309, 10 point concentration response starting at 10 μM
In short: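 Ten-point dilutions, top 10 μM final, were tested for displacing biotin-I309 from hCCR8-transfected L1.2 cells in HEPES-buffered HBSS with BSA and sodium azide, mixing 0.5 h before FMAT 8100 detection. Signals converted to percent inhibition against untreated wells and a 100 nM excess unlabeled I309 control.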

[1] = L1.2/hCCR8 cells, read-out: Ki of compounds to inhibit I-309 binding to CCR8
[2] = Ki of compounds to inhibit I-309 binding to CCR8, L1.2/hCCR8 cells

T1 sequence (P51685 whole entry): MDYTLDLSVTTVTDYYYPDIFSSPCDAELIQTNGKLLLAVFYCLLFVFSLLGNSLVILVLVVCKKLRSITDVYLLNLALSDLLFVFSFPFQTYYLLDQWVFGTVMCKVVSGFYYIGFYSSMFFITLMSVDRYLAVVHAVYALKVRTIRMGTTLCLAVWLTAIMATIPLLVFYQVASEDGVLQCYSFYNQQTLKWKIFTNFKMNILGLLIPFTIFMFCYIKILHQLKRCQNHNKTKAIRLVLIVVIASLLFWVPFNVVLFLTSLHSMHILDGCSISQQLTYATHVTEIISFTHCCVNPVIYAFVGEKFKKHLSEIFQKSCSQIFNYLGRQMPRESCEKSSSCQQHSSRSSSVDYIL

Row | Structure (SMILES) | Ki [1] [nM] | Ki [2] [nM]
1 | CCCC(=O)N1CCC(NS(=O)(=O)c2ccc(NC(=O)C3CCN(C)CC3)c3ccccc23)CC1 [Compound D-24, 1-Methyl-piperidine-4-carboxylic acid [4-(1-butyryl-piperidin-4-ylsulfamoyl)-naphthalen-1-yl]-amide] | < 30000 | –
2 | CCCC(=O)N1CCC(NS(=O)(=O)c2ccc(NC(=O)c3ccccc3C)c3c2CCCC3)CC1 [Compound E-1, N-[4-(1-Butyryl-piperidin-4-ylsulfamoyl)-5,6,7,8-tetrahydro-naphthalen-1-yl]-2-methyl-benzamide] | < 500 | –
3 | O=C(Nc1ccc(S(=O)(=O)NC2CCCCC2)c2c1CCCC2)c1ccccc1 [Compound E-2, N-(4-Cyclohexylsulfamoyl-5,6,7,8-tetrahydro-naphthalen-1-yl)-benzamide] | < 500 | –
4 | COc1ccc(NS(=O)(=O)c2ccc(NC(=O)c3ccccc3)c3c2CCCC3)cc1 [Compound E-3, N-[4-(4-Methoxy-phenylsulfamoyl)-5,6,7,8-tetrahydro-naphthalen-1-yl]-benzamide] | < 500 | –
5 | CCOC(=O)N1CCC(NS(=O)(=O)c2ccc(NC(=O)c3ccccc3)c3c2CCCC3)CC1 [Compound E-4, 4-(4-Benzoylamino-5,6,7,8-tetrahydro-naphthalene-1-sulfonylamino)-piperidine-1-carboxylic acid ethyl ester] | < 1000 | –
6 | O=C(Nc1ccc(S(=O)(=O)NC2CCCCC2)c2c1CCCC2)C1CCCCC1 [Compound E-5, Cyclohexanecarboxylic acid (4-cyclohexylsuffamoyl-5,6,7,8-tetrahydro-naphthalen-1-yl)-amide] | < 500 | –
7 | CCOC(=O)N1CCC(NS(=O)(=O)c2ccc(NC(=O)C3CCCCC3)c3c2CCCC3)CC1 [Compound E-6, 4-(4-(Cyclohexanecarbonyl-amino)-5,6,7,8-tetrahydro-naphthalene-1-sulfonylamino)-piperidine-1-carboxylic acid ethyl ester] | < 500 | –
8 | CCOC(=O)N1CCC(NS(=O)(=O)c2ccc(NC(=O)c3ccccc3C)c3c2CCCC3)CC1 [Compound E-8, 4-[4-(2-Methyl-benzoylamino)-5,6,7,8-tetrahydro-naphthalene-1-sulfonylamino]-piperidine-1-carboxylic acid ethyl ester] | < 500 | –
9 | Cc1ccccc1C(=O)Nc1ccc(S(=O)(=O)NC2CCCCC2)c2c1CCCC2 [Compound E-9, N-(4-Cyclohexylsulfamoyl-5,6,7,8-tetrahydro-naphthalen-1-yl)-2-methyl-benzamide] | < 500 | –
10 | Cc1ccccc1C(=O)Nc1ccc(S(=O)(=O)NC2CCN(C(=O)N(C)C)CC2)c2c1CCCC2 [Compound E-10, 4-[4-(2-Methyl-benzoylamino)-5,6,7,8-tetrahydro-naphthalene-1-sulfonylamino]-piperidine-1-carboxylic acid dimethylamide] | < 500 | –
11 | Cc1ccccc1C(=O)Nc1ccc(S(=O)(=O)NC2CCN(C(=O)N3CCCC3)CC2)c2c1CCCC2 [Compound E-11, 2-Methyl-N-{4-[1-(pyrrolidine-1-carbonyl)-piperidin-4-ylsulfamoyl]-5,6,7,8-tetrahydro-naphthalen-1-yl}-benzamide] | < 500 | –
12 | Cc1ccccc1C(=O)Nc1ccc(S(=O)(=O)NC2CCN(C(=O)C(C)C)CC2)c2c1CCCC2 [Compound E-12, N-[4-(1-Isobutyryl-piperidin-4-ylsulfamoyl)-5,6,7,8-tetrahydro-naphthalen-1-yl]-2-methyl-benzamide] | < 500 | –
13 | CCN(CC)C(=O)N1CCC(NS(=O)(=O)c2ccc(NC(=O)c3ccccc3C)c3c2CCCC3)CC1 [Compound E-14, 4-[4-(2-Methyl-benzoylamino)-5,6,7,8-tetrahydro-naphthalene-1-sulfonylamino]-piperidine-1-carboxylic acid diethylamide] | < 1000 | –
14 | COC(=O)N1CCC(NS(=O)(=O)c2ccc(NC(=O)c3ccccc3C)c3c2CCCC3)CC1 [Compound E-15, 4-[4-(2-Methyl-benzoylamino)-5,6,7,8-tetrahydro-naphthalene-1-sulfonylamino]-piperidine-1-carboxylic acid methyl ester] | < 500 | –
15 | Cc1ccccc1C(=O)Nc1ccc(S(=O)(=O)NC2CCN(C(=O)OC(C)C)CC2)c2c1CCCC2 [Compound E-16, 4-[4-(2-Methyl-benzoylamino)-5,6,7,8-tetrahydro-naphthalene-1-sulfonylamino]-piperidine-1-carboxylic acid isopropyl ester] | < 500 | –
16 | Cc1ccccc1C(=O)Nc1ccc(S(=O)(=O)NC2CCN(C(=O)CN(C)C)CC2)c2c1CCCC2 [Compound E-17, N-{4-[1-(2-Dimethylandno-acetl)-piperidin-4-ylsulfamoyl]-5,6,7,8-tetrahydro-naphthalen-1-yl}-2-methyl-benzamide] | < 500 | –
17 | COCC(=O)N1CCC(NS(=O)(=O)c2ccc(NC(=O)c3ccccc3C)c3c2CCCC3)CC1 [Compound E-18, N-{4-[1-(2-Methoxy-acetyl)-piperidin-4-ylsulfamoyl]-5,6,7,8-tetrahydro-naphthalen-1-yl}-2-methyl-benzamide] | < 500 | –
18 | CCNC(=O)N1CCC(NS(=O)(=O)c2ccc(NC(=O)c3ccccc3C)c3c2CCCC3)CC1 [Compound E-19, 4-[4-(2-Methyl-benzoylamino)-5,6,7,8-tetrahydro-naphthalene-1-sulfonylamino]-piperidine-1-carboxylic acid ethylamide] | < 500 | –
19 | CNC(=O)N1CCC(NS(=O)(=O)c2ccc(NC(=O)c3ccccc3C)c3c2CCCC3)CC1 [Compound E-22, 4-[4-(2-Methyl-benzoylamino)-5,6,7,8-tetrahydro-naphthalene-1-sulfonylamino]-piperidine-1-carboxylic acid methylamide] | < 500 | –
20 | Cc1ccccc1C(=O)Nc1ccc(S(=O)(=O)NC2CCOCC2)c2c1CCCC2 [Compound E-23, 2-Methyl-N-[4-(tetrahydro-pyran-4-ylsulfamoyl)-5,6,7,8-tetrahydro-naphthalen-1-yl]-benzamide] | < 500 | –
21 | Cc1ccccc1C(=O)Nc1ccc(S(=O)(=O)NCCCN2CCCC2=O)c2c1CCCC2 [Compound E-24, 2-Methyl-N-{4-[3-(2-oxo-pyrrolidin-1-yl)-propylsulfamoyl]-5,6,7,8-tetrahydro-naphthalen-1-yl}-benzamide] | < 1000 | –
22 | Cc1ccccc1C(=O)Nc1ccc(S(=O)(=O)NCCCN2CCOCC2)c2c1CCCC2 [Compound E-25, 2-Methyl-N-[4-(3-morpholin-4-yl-propylsulfamoyl)-5,6,7,8-tetrahydro-naphthalen-1-yl]-benzamide] | < 30000 | –
23 | Cc1ccccc1C(=O)Nc1ccc(S(=O)(=O)NC2CCCC2)c2c1CCCC2 [Compound E-26, N-(4-Cyclopentylsulfamoyl-5,6,7,8-tetrahydro-naphthalen-1-yl)-2-methyl-benzamide] | < 1000 | –
24 | Cc1ccccc1C(=O)Nc1ccc(S(=O)(=O)NCC2CCCCC2)c2c1CCCC2 [Compound E-27, N-[4-(Cyclohexylmethyl-sulfamoyl)-5,6,7,8-tetrahydro-naphthalen-1-yl]-2-methyl-benzamide] | < 500 | –
25 | CCOC(=O)N1CCC(NS(=O)(=O)c2ccc(C(=O)NC3CCCCC3)c3ccccc23)CC1 [Compound F-3, 4-(4-Cyclohexylcarbamoyl-naphthalene-1-sulfonylamino)-piperidine-1-carboxylic acid ethyl ester] | – | < 500
26 | CCNC(=O)N1CCC(NS(=O)(=O)c2ccc(C(=O)Nc3ccccc3C)c3ccccc23)CC1 [Compound F-10, 4-(4-o-Tolylcarbamoly-naphthalene-1-sulfonylamino)-piperidine-1-carboxylic acid ethylamide] | – | < 500

Further lines, with some results ahead:

Row | Ki [1] [nM] | Structure (SMILES) | Ki [2] [nM]
27 | < 1000 | CC(C)(C)OC(=O)N1CCC(NS(=O)(=O)c2ccc(C(=O)NC3CCCCC3)c3ccccc23)CC1 [Compound F-1, 4-(4-Cyclohexylcarbamoyl-naphthalene-1-sulfonylamino)-piperidine-1-carboxylic acid tert-butyl ester] | –
28 | < 30000 | O=C(NC1CCCCC1)c1ccc(S(=O)(=O)NC2CCNCC2)c2ccccc12 [Compound F-2, 4-(Piperidin-4-ylsulfamoyl)-naphthalene-1-carboxylic acid cyclohexylamide] | –
29 | < 500 | Cc1ccccc1NC(=O)c1ccc(S(=O)(=O)NC2CCN(C(=O)OC(C)(C)C)CC2)c2ccccc12 [Compound F-4, 4-(4-o-Tolylcarbamoyl-naphthalene-1-sulfonylamino)-piperidine-1-carboxylic acid tert-butyl ester] | –
30 | < 30000 | Cc1ccccc1NC(=O)c1ccc(S(=O)(=O)NC2CCNCC2)c2ccccc12 [Compound F-5, 4-(Piperidin-4-ylsulfamoyl)-naphthalene-1-carboxylic acid o-tolylamide] | –
31 | < 500 | CN(C)C(=O)N1CCC(NS(=O)(=O)c2ccc(C(=O)NC3CCCCC3)c3ccccc23)CC1 [Compound F-6, 4-(4-Cyclohexylcarbamoyl-naphthalene-1-sulfonylamino)-piperidine-1-carboxylic acid dimethylamide] | –
32 | < 500 | CCCC(=O)N1CCC(NS(=O)(=O)c2ccc(C(=O)NC3CCCCC3)c3ccccc23)CC1 [Compound F-7, 4-(1-Butyryl-piperidin-4-ylsulfamoyl)-naphthalene-1-carboxylic acid cyclohexylainde] | –
33 | < 500 | CCNC(=O)N1CCC(NS(=O)(=O)c2ccc(C(=O)NC3CCCCC3)c3ccccc23)CC1 [Compound F-8, 4-(4-Cyclohexylcarbamoyl-naphthalene-1-sulfonylamino)-piperidine-1-carboxylic acid ethylamide] | –
34 | < 500 | CCCC(=O)N1CCC(NS(=O)(=O)c2ccc(C(=O)Nc3ccccc3C)c3ccccc23)CC1 [Compound F-9, 4-(1-Butyryl-piperidin-4-ylsulfamoyl)-naphthalene-1-carboxylic acid o-tolylamide] | –
